Tests used:
[1] = Kinetic study to determine turnover frequency of copper-mediated depropargylation of PPE; settings: 200 nM Cu^2+, 20 μM PPE, 160 μM DMAPPP
Method: To determine whether this method was a catalytic method, we monitored the reaction over time (FIG. 11). A standard curve was prepared for dichlorofluorescein (DCF) by dissolving the solid in EtOH to a concentration of 20 mM. The DCF was then diluted to 500 μM in EtOH. A stock solution was prepared by adding 500 mM pH 8.5 borate buffer (600 μL), EtOH (81.6 μL), 500 μM DCF in EtOH (32 μL), 20 mM DMAPPP in DMSO (6.4 μL). This stock solution (200 μL) was then transferred to a black 96-well plate.
The diluent was prepared by mixing 500 mM borate pH 8.5 buffer (9.00 mL), EtOH (1.70 mL), and 20 mM DMAPPP in DMSO (96 μL). The diluent (100 μL) was transferred to the black 96-well plate. 2× serial dilutions were performed by removing 100 μL of the stock solution from the wells and adding it to the wells containing the diluent. […] The fluorescence of these solutions was measured and a standard curve was generated.
The working solution was prepared by mixing 500 mM borate pH 8.5 buffer (1.20 mL), EtOH (187 μL), 800 μM PPE in EtOH (40 μL), 20 mM DMAPPP in DMSO (12.8 μL) in a conical tube. […] 0 or 2.0 μM Cu^2+ (20 μL) was then added to the wells and the fluorescence was measured every 5 min for 2 h.
The fluorescence value was converted to a concentration of Pittsburgh Green using the linear regression generated from the standard curve of DCF. The fluorescence vs. time was then plotted.

HeLa cells = assay: Fluorescence imaging of copper ions in live HeLa cells; assay type: cell-based; settings: HeLa cells loaded with 1 mM CuSO4, 20 μM PPE, 160 μM DMAPPP, 15 min
Method: Finally, we applied our method to imaging cellular pools of copper. HeLa cells were loaded with 1 mM CuSO4 in DMEM for 30 min at 37° C. The cells were washed. PPE and DMAPPP were added during imaging to a final concentration of 20 μM and 160 μM, respectively. Images were obtained on a Nikon Ti microscope equipped with a 60× (1.4 NA) objective.

[2] = Fluorescence intensity of Pittsburgh Green versus PPE; assay type: physicochemical
Method: All fluorescence measurements were obtained using a Modulus II Microplate Multimode Reader. Fluorescence was measured after exciting samples with 490 nm light and emission was measured between 510-570 nm. All fluorescence measurements were obtained at room temperature.

## Propargyl Pittsburgh Green ether [PPE]
[1]; after one hour
  concentration of reaction product (Pittsburgh Green) produced: approximately 480 nM
[1]; borate pH 8.5
  turnover frequency: ~2.4 per hour
HeLa cells
  fluorescence within cells: time-dependent increase in fluorescence
[2]
  ratio of fluorescence intensities Pittsburgh Green fluorophore : PPE: 200-400 :1
